Source: publication PMC10454726 (International Journal of Molecular Sciences, 2023)

Columns and labels:
[1] = tested on: streptozotocin-induced diabetic rats; assay: Weekly fasting glucose in streptozotocin-induced diabetic rats; format: in vivo, Wistar rat; conditions: after 7 and 14 days of treatment (weeks 6 and 7)
Procedure: (§1) After a week of acclimation, 35 male Wistar rats were given a single intraperitoneal dose of STZ (Sigma Chemical Co. Toluca, Estado de México, Mexico) at a dosage of 45 mg/kg of body weight, after fasting for 12 h overnight with free access to water. To prevent initial drug-induced hypoglycemia mortality, these animals were given a 10% sucrose solution 24 h after administration. STZ was dissolved in 0.1 M of sodium citrate buffer (pH 4.5) and administered in a final volume of 5 mL/kg. A week after STZ injection, diabetes in streptozotocin rats was confirmed by measuring fasting blood glucose (by glucose oxidase method). Animals with a blood glucose (tail vein) above 126 mg/dL were considered diabetic and used for the experiment to create groups 2, 3, 4, 5, 6, and 7 [1, 13]. Blood glucose levels were measured using a glucometer (Accu-Chek Active, Roche, Mannheim, Germany) and reactive strips (Accu-Chek Active Glucose test strips, Roche). The presence of hyperglycemia and insulin level confirmed a model very similar to T2D in humans. For the pharmacological study, the final number of animals was 35 male rats, with 3 rats being sacrificed during the treatment stage. One was administered with FC-114 and two with acarbose. The first rat was damaged during oral glucose administration in the OGTT at week 5, and the other rats had gastrointestinal complications in week 7.
(§2) The diabetic animals in group 2 (untreated) were given 4% v/v aqueous EtOH solution (vehicle of treatments) in a volume of 6.5 mL/kg body weight. The other groups (3–7) received different treatments for 14 days (weeks 5 to 7). […] All of the treatments were at equimolar doses of PIO and adjusted to the weekly weight of each rat. […] The commercial PIO tablet (30 mg) was crushed in 7.5 mL of vehicle and given to each animal in 4.0 mg/mL of suspension. The FC-114 and FC-122 suspensions were created at 6.2 and 6.0 mg/mL, respectively. The commercial acarbose tablet (50 mg) was crushed in 7.5 mL of the vehicle and given to each animal in a suspension of 6.6 mg/mL. Each suspension was used within 2 days of its preparation, and the administration volume was near to 2.5 mL for each rat.

[2] = Cytotoxic effect on Human Foreskin fibroblasts (SRB); format: cell-based; conditions: HFF-1 cells
Procedure: However, at high concentrations, they can be harmful to cells. For humans, doses less than 100 mg/day are considered safe. […] Therefore, we conducted cytotoxicity assays on Human Foreskin fibroblasts (HFF-1) and an AOT on female Wistar rats to assess their safety.
In a 96-well plate, 7000 cells per well of Human Foreskin fibroblasts (HFF-1) were cultured. […] Untreated cells were also included as a negative control. At the end of the incubation period, the cell contents were precipitated with 50 µL of a 50% aqueous solution of trichloroacetic acid (TCA) at 4 °C for 1 h. The supernatant was discarded and washed 5 times with distilled water. Afterward, the plates were allowed to dry at room temperature. The cell contents were incubated with 100 µL of a 0.04% sulforhodamine B (SRB) solution for 1 h at room temperature. The excess SRB was removed by washing with a 1% aqueous acetic acid solution. […] With the data obtained, the viability of treated cells was calculated by comparing the control without treatment. CC50 value was determined by employing BioStat Pro 5.9.8 software (AnalystSoft Inc., Brandon, FL, USA).

[3] = tested on: streptozotocin-induced diabetic rats; assay: Oral glucose tolerance test in streptozotocin-induced diabetic rats; format: in vivo, Wistar rat; set-up: AUC of the OGTT: unit not given here
Procedure: as §1, §2
The OGTT was carried out in weeks 3, 4, 5, 6, and 7. Prior to the OGTT, all animal groups fasted overnight for eight hours with free access to water. Each rat was weighed and then received a 2 g/kg glucose overload orally and blood samples were taken from the tail vein [13, 97]. Glucose levels were measured using a glucometer (Accu-Chek Active, Roche, Mannheim, Germany) at 0, 30, 60, 90, 120, and 180 min after glucose administration. The AUC of the OGTT was calculated using the blood glucose concentration over time and the GraphPad Prism 8.0.1 software package (GraphPad Software; Science Inc., San Diego, CA, USA) was used to compare the effectiveness of the treatments.

female Wistar rats = assay: Acute oral toxicity (OECD guideline 425); format: in vivo; conditions: for toxic effects at the macroscopic level (necropsy images): 175, 550, and 2000 mg/kg; for AOT (acute oral toxicity): female Wistar rats
Procedure: They were kept in standard polypropylene boxes under controlled temperature (24 ± 4 °C) on a 12 h light/dark cycle and provided conventional food (formula 5001, Rat Chow) and purified water ad libitum. […] At the end of the experiment, the animals were taken to the humanitarian endpoint by the intraperitoneal (ip) administration of 75 mg/kg of sodium pentobarbital to perform a necropsy in the bioterium of FESC, UNAM. During the necropsy, blood serum was extracted to quantify glucose, triacylglycerides, cholesterol, and insulin. The study was conducted based on the guidelines of the Declaration of Helsinki and approved by the Institutional Review Board: Internal Committee for the Care and Use of Experimentation Animals (CICUAE, according to the initials in Spanish, C23_02 on March 2023) of the FESC UNAM (Mexico). It complies with the Mexican norm for this matter (NOM-062-ZOO-1999, Technical Specifications for the Production, Care, and Use of Laboratory Animals, SAGARPA), as well as the Guide for the Care and Use of Laboratory Animals of the National Research Council and National Institutes of Health (NIH Publications No. 8023, revised 1978).
The female Wistar rats (n = 3) were used to obtain the AOT based on the procedures of Guide Number 425 of the Organization for Economic Cooperation and Development (OECD). The rats were closely monitored for 48 h after receiving oral doses of FC-114 or FC-122. Rat 1 received 175 mg/kg, rat 2 received 550 mg/kg, and rat 3 received 2000 mg/kg. They were then observed for 14 days until a necropsy to check for any toxic effects.

[4] = biological target: α-glucosidase from Rominococcus obeum (Blautia obeum, UniProt A5ZY13); assay: Enzymatic kinetics of α-glucosidase inhibition (pNPG substrate); format: biochemical
Sequence of α-glucosidase from Rominococcus obeum (A5ZY13 entry or part of it): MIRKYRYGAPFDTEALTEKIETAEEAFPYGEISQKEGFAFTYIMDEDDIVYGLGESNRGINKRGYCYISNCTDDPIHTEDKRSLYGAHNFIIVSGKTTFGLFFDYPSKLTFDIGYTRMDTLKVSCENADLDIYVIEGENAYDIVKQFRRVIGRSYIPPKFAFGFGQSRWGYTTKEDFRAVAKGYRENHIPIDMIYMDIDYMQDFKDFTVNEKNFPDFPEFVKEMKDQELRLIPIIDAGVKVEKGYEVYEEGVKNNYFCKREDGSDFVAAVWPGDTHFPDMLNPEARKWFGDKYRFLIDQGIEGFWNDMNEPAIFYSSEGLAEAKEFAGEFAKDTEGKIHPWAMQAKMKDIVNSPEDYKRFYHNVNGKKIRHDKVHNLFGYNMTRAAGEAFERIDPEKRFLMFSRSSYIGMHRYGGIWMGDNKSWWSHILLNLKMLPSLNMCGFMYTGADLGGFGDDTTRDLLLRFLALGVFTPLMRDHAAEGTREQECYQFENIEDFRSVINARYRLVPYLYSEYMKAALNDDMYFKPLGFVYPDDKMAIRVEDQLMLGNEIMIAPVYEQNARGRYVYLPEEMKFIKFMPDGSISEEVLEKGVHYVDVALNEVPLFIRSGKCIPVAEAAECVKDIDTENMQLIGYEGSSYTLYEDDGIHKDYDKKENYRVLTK
Procedure: The kinetic studies for PTP1B and α-glucosidase were carried out under the same conditions described in the references.

[5] = Week 5 (day 1 of treatment), oral, glibenclamide 0.6, FC-114 51.3, FC-122 49.1, PIO 30, acarbose 54.3 mg/kg/day
[6] = Week 6 (day 7 of treatment), same doses
[7] = Week 7 (day 14 of treatment), same doses

Row | Structure (SMILES) | fasting glucose levels [1] | CC50 at 48 h [2] [µM] | AUC of the OGTT [3, 5] | AUC of the OGTT [3, 6] | AUC of the OGTT [3, 7] | toxic effects at the macroscopic level (necropsy images) (female Wistar rats) | Toxic Effects (female Wistar rats; dose 175 mg/kg oral) | Weight Gain for 2 Weeks (female Wistar rats; dose 175 mg/kg oral) [g] | Toxic Effects (female Wistar rats; dose 550 mg/kg oral) | Weight Gain for 2 Weeks (female Wistar rats; dose 550 mg/kg oral) [g] | Toxic Effects (female Wistar rats; dose 2000 mg/kg oral) | Weight Gain for 2 Weeks (female Wistar rats; dose 2000 mg/kg oral) [g] | AOT (acute oral toxicity) (female Wistar rats) | α-glucosidase inhibitory activity ([4]; range of concentrations tested) | CC50 at 48 h ([2]; HFF-1 human foreskin fibroblasts) [µM] | glucose blood levels in OGTT compared to untreated animals ([3]; after 14 days of administration, ANOVA/Bonferroni) | Inhibition type (α-glucosidase) ([4]; Lineweaver-Burk plots) | Ki ([4]; substrate pNPG, Lineweaver-Burk) [µM] | fold better potency than acarbose (Ki) ([4]; vs acarbose)
1 | CC1(C)c2[nH]c3ccc(C(F)(F)F)cc3c2C[C@]2(C)[C@H]3C(=O)C=C4[C@@H]5C[C@@](C)(C(=O)O)CC[C@]5(C)CC[C@@]4(C)[C@]3(C)CC[C@@H]12 [FC-114] | halt the continuous increase of glucose levels | 59.5 ± 3 | 53,895 | 62,944 | 57,131 | No toxic effects were observed | None | 22.8 | None | 23.4 | None | 21.5 | higher than 2000 mg/kg | not active | – | – | – | – | –
2 | Cc1ccc(-n2ncc3c2C(C)(C)[C@@H]2CC[C@]4(C)[C@H](C(=O)C=C5[C@@H]6C[C@@](C)(C(=O)O)CC[C@]6(C)CC[C@]54C)[C@@]2(C)C3)cc1 [FC-122] | halt the continuous increase of glucose levels | – | 58,941 | 57,003 | 53,076 | No toxic effects were observed | None | 23.5 | None | 25.2 | None | 26.4 | higher than 2000 mg/kg | – | 68.4 ± 1 | ranked third | linear-mixed type | 5.2 | ~ 5 fold
